The nature of the experiment: Activity toward hydrogen peroxide. It is filed as biochemical.

For the compound “manganese [III] tetrakis-(5,10,15,20)-benzoic acid porphyrin [MnTBAP]”, the “activity toward hydrogen peroxide” value was “significant activity”.

mangafodipir: the “activity toward hydrogen peroxide” value is reported as “significant activity”.

Consider `CC(C)c1cc(C(=O)O)c([O-])c(C(C)C)c1.CC(C)c1cc(C(=O)O)c([O-])c(C(C)C)c1.[Cu+2]` [CuDIPS, copper [II] diisopropylsalicylate], for which the “activity toward hydrogen peroxide” value is recorded as “significant activity”.

(Values after patent US11826373B2, “Methods for treatment of diseases” (Galera Labs, LLC, priority 2011, dated 2023).)
